Results: patent publication US6242173A, “Immunoassays for catalytically-active, serine proteases” (University of Vermont and State Agriculatural College, priority 1992, dated 2001)
“Also recorded” adds a separate entry of the source.

How the values were obtained:
Human Xa [1] = biological target: T1, Human Xa (Homo sapiens, UniProt P00742); assay: Fluorophore-protein ratios by absorbance; format: binding; conditions: isolated labeled protein
T1 construct: from tissue; host or cells: fresh frozen human plasma
T1 sequence (P00742 235-488 limits assumed): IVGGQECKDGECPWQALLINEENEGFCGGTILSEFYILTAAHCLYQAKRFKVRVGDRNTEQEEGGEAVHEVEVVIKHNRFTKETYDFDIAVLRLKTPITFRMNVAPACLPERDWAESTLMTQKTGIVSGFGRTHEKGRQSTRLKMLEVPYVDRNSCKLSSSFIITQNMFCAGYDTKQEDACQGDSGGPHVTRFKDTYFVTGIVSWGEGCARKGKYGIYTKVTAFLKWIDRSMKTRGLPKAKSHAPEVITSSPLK
T1 sequence (P00742 41-179 partner limits assumed): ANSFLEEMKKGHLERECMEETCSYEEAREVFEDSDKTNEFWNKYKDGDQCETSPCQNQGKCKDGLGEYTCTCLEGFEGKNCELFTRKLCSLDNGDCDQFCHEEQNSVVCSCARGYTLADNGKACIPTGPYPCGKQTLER

bovine Xa = bovine Xa (Bos taurus, UniProt P00743); assay: Fluorophore-protein ratios by absorbance; format: binding; conditions: isolated labeled protein
Chain of bovine Xa (P00743 234-492 limits assumed): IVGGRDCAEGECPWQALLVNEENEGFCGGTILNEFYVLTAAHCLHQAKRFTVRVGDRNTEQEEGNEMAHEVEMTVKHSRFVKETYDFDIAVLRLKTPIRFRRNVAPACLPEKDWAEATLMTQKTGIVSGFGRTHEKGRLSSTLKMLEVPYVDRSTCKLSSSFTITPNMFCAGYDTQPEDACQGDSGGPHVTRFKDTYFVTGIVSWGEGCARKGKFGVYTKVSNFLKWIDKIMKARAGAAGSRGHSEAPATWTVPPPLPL
Chain of bovine Xa (P00743 41-180 partner limits assumed): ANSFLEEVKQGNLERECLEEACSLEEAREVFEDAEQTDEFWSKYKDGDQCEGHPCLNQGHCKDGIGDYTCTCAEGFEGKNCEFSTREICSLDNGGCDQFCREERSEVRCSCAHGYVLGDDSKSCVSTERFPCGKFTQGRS

thrombin = biological target: T2, thrombin (Homo sapiens, UniProt P00734); assay: Blocking of the reaction of thrombin with synthetic substrate S2238; format: biochemical; conditions: solution in 1.0 mM HCl
T2 construct: from tissue; host or cells: fresh frozen human plasma
Protocol: FPRck.2HCl (Calbiochem) (5.0 mg, […]) was dissolved in methanol (1.0 mL) and treated with 2,6-dansyl chloride (Molecular Probes) (2.6 mg, 9.5 μmoles) in DMF (1.0 mL). The solution was mixed and treated with 4-methylmorpholine (20 μL, 16 μmoles). After 20 minutes at 25° C., the reaction was stopped by addition of 1.0 M HCl (100 μL) and the mixture was applied directly to a SEPHADEX LH-20 column (1×30 cm, in methanol). The elution was followed by fluorescence, A280, Sakaguchi stain and thin layer chromatography. The product appeared as a single fluorescent, Sakaguchi positive spot Rf =0.14 (2:1 chloroform:methanol on Bakerflex silica gel). The pooled sample was evaporated to an oil and taken up in 1.0 mM HCl. […] The solution was lyophilized to an oil which was taken up in 10.0 mM HCl (3.8 mL) and frozen. Final concentration (determined by A360) was 1.0 mM. Yield was 3.8 μmoles or 40%.
Factor Xa: In a one mL cuvette, 22.5 μM S2222 in Hepes/saline pH=7.4 was treated with 1-10 μL of the factor Xa preparation. The mixture was stirred briefly and the absorbance at 405 nm followed in a Cary 219 UV/visible spectrophotometer. The rate was taken for the initial linear phase. Similar methods were used for thrombin (S2238), plasmin (S2251) and tPA (S2238). Hemker, H. C. (1983) in Handbook of Synthetic Substrates: For the Coagulation and Fibrinolytic Systems. Martinus Nijhogg Publishers, Boston.

tissue factor = tissue factor (Homo sapiens, UniProt P13726); assay: Blocking of tissue factor, tissue factor specific activity; format: biochemical
Chain of tissue factor (P13726 33-295): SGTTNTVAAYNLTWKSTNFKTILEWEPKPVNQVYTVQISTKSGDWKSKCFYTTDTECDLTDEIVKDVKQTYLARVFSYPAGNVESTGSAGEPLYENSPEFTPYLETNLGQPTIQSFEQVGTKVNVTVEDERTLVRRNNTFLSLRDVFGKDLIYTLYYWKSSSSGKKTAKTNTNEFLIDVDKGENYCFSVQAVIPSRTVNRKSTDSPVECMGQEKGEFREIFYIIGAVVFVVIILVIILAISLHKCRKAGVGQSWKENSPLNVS

factor VIIa (hVIIa) = biological target: T3, factor VIIa (hVIIa) (Homo sapiens, UniProt P08709); assay: Screening of protein/BC-PPACK reactions, avidin-biotin-peroxidase blot; format: binding; conditions: 10 fold molar excess twice, overnight
T3 construct: Human factor VII was converted to VIIa by incubation for 1 hour with a 0.2% (w/w) aliquot of human Xa; from tissue; host or cells: fresh frozen human plasma; VII converted to VIIa with human Xa, or VIIa already present in the isolate
T3 sequence (P08709 213-466 limits assumed): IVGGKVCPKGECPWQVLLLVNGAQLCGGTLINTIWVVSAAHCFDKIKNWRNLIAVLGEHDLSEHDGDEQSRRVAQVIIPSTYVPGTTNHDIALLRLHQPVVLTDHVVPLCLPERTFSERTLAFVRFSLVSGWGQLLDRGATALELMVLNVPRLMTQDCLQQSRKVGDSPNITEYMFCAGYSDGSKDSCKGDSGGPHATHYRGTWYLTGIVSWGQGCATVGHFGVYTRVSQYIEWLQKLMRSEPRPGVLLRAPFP
T3 sequence (P08709 61-212 partner limits assumed): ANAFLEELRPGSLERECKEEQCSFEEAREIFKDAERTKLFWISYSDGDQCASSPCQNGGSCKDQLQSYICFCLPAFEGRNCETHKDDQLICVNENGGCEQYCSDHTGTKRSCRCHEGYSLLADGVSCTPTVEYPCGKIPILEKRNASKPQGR
Protocol: (§1) Samples of purified enzymes, zymogens, or enzyme-zymogen mixtures were treated with BC-PPACK as follows: 10-30 μg samples of protein at 0.5 mg/mL in Hepes (20 mM)/NaCl (150 mM) pH=7.4 was reacted with 10 fold molar excess of BC-PPACK for 30 minutes, followed by a second 10 fold aliquot and overnight incubation at room temperature. Samples were then reduced with 2-mercapto-ethanol and prepared for PAGE gel electrophoresis either on 12×12 cm or PhastGel systems. After electrophoresis, the gels were blotted to nitrocellulose using tris/glycine methanol transfer buffer. The nitrocellulose was then blocked with TWEEN reagent, washed with tris/glycine and reacted with avidin-biotin-peroxidase. Development with 4-chloronapthtalene visualized the biotinylated proteins.

hII = biological target: T4, hII (Homo sapiens, UniProt P00734); assay: as above; format: binding; conditions: zymogen; 10 fold molar excess twice, overnight
T4 construct: Except as noted, all proteins were isolated from fresh frozen human plasma; from tissue; host or cells: fresh frozen human plasma
Protocol: as §1

hVII = biological target: T5, hVII (Homo sapiens, UniProt P08709); assay: as above; format: binding; conditions: zymogen; 10 fold molar excess twice, overnight
T5 construct: Except as noted, all proteins were isolated from fresh frozen human plasma; from tissue; host or cells: fresh frozen human plasma
T5 sequence (P08709 61-466): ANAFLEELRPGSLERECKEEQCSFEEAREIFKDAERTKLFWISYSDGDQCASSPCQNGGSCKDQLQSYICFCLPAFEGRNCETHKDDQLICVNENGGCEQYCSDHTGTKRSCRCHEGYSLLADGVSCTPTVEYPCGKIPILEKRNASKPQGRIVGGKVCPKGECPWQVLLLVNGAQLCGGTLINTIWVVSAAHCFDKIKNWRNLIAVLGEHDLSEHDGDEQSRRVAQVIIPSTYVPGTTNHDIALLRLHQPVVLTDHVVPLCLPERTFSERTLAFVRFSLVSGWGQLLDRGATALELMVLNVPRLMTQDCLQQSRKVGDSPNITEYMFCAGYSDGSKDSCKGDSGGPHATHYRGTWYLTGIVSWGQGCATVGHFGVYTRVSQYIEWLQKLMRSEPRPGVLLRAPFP
Protocol: as §1

factor Xa (hXa) = biological target: T6, factor Xa (hXa) (Homo sapiens, UniProt P00742); assay: as above; format: binding; conditions: 10 fold molar excess twice, overnight
T6 construct: from tissue; host or cells: fresh frozen human plasma
T6 sequence (P00742 235-488 limits assumed): as the sequence (P00742 235-488 limits assumed) above
T6 sequence (P00742 41-179 partner limits assumed): as the sequence (P00742 41-179 partner limits assumed) above
Protocol: as §1

plasmin (hPm) = biological target: T7, plasmin (hPm) (Homo sapiens, UniProt P00747); assay: as above; format: binding; conditions: 10 fold molar excess twice, overnight
T7 construct: Plasmin was prepared from plasminogen by treatment with 1:200 (weight:weight) of urokinase; from tissue; host or cells: human plasma (lysine-Sepharose)
T7 sequence (P00747 581-810 limits assumed): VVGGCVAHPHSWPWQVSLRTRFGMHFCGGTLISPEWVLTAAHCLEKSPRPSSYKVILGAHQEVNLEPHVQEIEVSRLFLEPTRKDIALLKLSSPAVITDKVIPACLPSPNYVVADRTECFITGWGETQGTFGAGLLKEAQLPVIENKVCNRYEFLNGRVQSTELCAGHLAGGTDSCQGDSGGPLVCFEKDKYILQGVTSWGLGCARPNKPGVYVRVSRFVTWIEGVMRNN
T7 sequence (P00747 97-580 partner limits assumed): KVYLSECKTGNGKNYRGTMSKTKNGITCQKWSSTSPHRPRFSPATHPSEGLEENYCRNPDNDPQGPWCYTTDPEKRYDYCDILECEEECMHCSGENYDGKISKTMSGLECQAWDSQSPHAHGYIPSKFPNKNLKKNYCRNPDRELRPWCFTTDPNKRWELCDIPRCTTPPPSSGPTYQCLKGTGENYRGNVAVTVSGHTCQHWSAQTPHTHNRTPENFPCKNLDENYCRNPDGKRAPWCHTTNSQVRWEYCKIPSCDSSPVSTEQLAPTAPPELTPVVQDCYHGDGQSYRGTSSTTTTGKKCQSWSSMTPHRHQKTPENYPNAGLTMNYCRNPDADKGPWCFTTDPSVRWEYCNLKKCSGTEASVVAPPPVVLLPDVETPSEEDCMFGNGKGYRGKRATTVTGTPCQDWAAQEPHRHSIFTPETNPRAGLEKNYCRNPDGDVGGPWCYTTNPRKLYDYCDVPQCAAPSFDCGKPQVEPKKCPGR
Protocol: as §1

hX = biological target: T8, hX (Homo sapiens, UniProt P00742); assay: as above; format: binding; conditions: zymogen; 10 fold molar excess twice, overnight
T8 construct: Except as noted, all proteins were isolated from fresh frozen human plasma; from tissue; host or cells: fresh frozen human plasma
T8 sequence (P00742 183-488 limits assumed): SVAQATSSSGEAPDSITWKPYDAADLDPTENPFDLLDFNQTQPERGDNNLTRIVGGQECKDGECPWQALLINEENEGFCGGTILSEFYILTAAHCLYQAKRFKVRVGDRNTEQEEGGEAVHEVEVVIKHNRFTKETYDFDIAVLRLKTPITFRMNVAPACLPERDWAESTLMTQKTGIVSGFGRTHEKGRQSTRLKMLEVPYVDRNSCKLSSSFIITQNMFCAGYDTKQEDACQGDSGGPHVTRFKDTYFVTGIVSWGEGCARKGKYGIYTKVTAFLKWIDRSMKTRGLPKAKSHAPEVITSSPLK
T8 sequence (P00742 41-179 partner limits assumed): as the sequence (P00742 41-179 partner limits assumed) above
Protocol: as §1

hPg = biological target: T9, hPg (Homo sapiens, UniProt P00747); assay: as above; format: binding; conditions: zymogen; 10 fold molar excess twice, overnight
T9 construct: Plasminogen was isolated by passing thawed, aprotinin treated plasma over lysine-Sepharose; from tissue; host or cells: human plasma (lysine-Sepharose)
T9 sequence (P00747 20-810 limits assumed): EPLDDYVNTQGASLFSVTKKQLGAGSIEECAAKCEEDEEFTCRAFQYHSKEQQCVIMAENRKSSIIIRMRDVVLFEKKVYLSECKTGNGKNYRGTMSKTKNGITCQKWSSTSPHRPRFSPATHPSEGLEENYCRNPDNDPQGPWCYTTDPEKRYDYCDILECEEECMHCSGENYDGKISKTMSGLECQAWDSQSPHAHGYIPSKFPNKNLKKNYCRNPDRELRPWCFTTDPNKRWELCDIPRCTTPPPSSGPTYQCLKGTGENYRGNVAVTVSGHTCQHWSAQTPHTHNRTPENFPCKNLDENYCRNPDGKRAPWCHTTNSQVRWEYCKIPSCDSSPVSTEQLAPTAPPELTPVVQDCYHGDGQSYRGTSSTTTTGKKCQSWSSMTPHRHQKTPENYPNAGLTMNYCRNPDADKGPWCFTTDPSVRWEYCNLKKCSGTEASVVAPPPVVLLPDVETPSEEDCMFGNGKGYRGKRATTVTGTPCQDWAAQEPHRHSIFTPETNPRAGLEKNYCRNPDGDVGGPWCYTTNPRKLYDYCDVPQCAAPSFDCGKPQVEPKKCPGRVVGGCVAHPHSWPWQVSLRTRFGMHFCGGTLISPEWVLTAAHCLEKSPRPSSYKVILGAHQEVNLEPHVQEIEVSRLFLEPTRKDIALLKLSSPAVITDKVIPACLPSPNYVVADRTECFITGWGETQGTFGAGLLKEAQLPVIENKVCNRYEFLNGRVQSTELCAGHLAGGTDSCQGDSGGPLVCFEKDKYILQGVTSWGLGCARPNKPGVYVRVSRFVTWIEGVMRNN
Protocol: as §1

thrombin (hIIa) = biological target: T10, thrombin (hIIa) (Homo sapiens, UniProt P00734); assay: as above; format: binding; conditions: 10 fold molar excess twice, overnight
T10 construct: from tissue; host or cells: fresh frozen human plasma
Protocol: as §1

[2] = system: tissue plasminogen activator (tTPA) (1 and 2 chain); assay: as above; format: binding, human; conditions: 10 fold molar excess twice, overnight
Chain of tissue plasminogen activator (tTPA) (1 and 2 chain) (P00750 311-562 limits assumed): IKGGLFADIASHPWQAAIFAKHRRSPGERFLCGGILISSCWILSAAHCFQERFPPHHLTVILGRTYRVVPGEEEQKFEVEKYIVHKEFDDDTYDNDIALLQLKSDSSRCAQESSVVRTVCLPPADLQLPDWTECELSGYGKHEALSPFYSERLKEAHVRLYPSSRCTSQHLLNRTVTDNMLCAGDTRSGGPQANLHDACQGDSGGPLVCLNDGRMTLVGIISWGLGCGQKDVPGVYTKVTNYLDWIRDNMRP
Protocol: as §1
Plasminogen was isolated by passing thawed, aprotinin treated plasma over lysine-Sepharose and eluting the bound plasminogen with ε-aminocaproic acid (ECAC) (Castellino, F. J. and Powell, J. R. (1980) Methods Enzymol. 80:365-378). A second pass over the lysine SEPHAROSE gel, followed by separation from aprotinin on SEPHAROSE gel G-100 gave plasminogen which was homogeneous when evaluated by gel electrophoresis. Plasmin was prepared from plasminogen by treatment with 1:200 (weight:weight) of urokinase in Hepes/saline. Tissue plasminogen activator (tPA) was recombinant human tPA (Genentech) and contained both single chain and two chain forms. Urokinase was a generous gift from Dr. David Stump and was two chain.

avidin = avidin (Gallus gallus, UniProt P02701); assay: Avidin-biotin interaction (fluorescein-avidin, avidin-acrylic, avidin-peroxidase blotting); conditions: free compound, column fractions in 1.0 mM HCl
Chain of avidin (P02701 25-152): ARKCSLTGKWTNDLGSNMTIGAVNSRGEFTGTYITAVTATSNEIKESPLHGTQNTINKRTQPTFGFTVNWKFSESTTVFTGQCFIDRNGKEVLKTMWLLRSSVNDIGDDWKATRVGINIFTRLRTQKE

factor VIIa = biological target: T11, factor VIIa (Homo sapiens, UniProt P08709); assay: Removal of active enzyme from zymogen with biotinylated chloromethyl ketone and avidin matrix; conditions: human factor VII containing factor VIIa; listed as BioCap-YGRck
T11 construct: Human factor VII was converted to VIIa by incubation for 1 hour with a 0.2% (w/w) aliquot of human Xa; from tissue; host or cells: fresh frozen human plasma; VII converted to VIIa with human Xa, or VIIa already present in the isolate
T11 sequence (P08709 213-466 limits assumed): T3 sequence (P08709 213-466 limits assumed)
T11 sequence (P08709 61-212 partner limits assumed): T3 sequence (P08709 61-212 partner limits assumed)

activated human plasma = assay: Reaction of activated human plasma with BC-YGR-CK, blot; conditions: thromboplastin and Ca+2 (4 mM) activated plasma, timed aliquots, final CK concentration 1.2 μM
Protocol: Normal human plasma (200 μL) at 37° C. was activated with thromboplastin (10 μL) and Ca^+2 (4 mM). At timed intervals, 20 uL aliquots were removed and added to 2 μL aliquots of […] BC-YGR-CK (final CK concentration was 1.2 μM). A clot was observed after 122 seconds. The samples were then run on PhastGel electrophoresis and blotted to nitrocellulose.

Human Xa [3] = biological target: T1, Human Xa; assay: Reaction of Human Xa with BC-PPACK, residual activity vs. S2222; format: biochemical

Compound | biotinylated protein on blot (factor VIIa (hVIIa)) | biotinylated protein on blot (hII) | biotinylated protein on blot (hVII) | biotinylated protein on blot (factor Xa (hXa)) | biotinylated protein on blot (hX) | biotinylated protein on blot (thrombin (hIIa)) | biotinylated protein on blot [2] | other results
5 (and 6) Carboxylfluoresceinyl-L-glutamylglycyl-L-arginine chloromethyl ketone hydrochloride [Fluoresceinyl-EGRCk] | – | – | – | – | – | – | – | Fluorophore/Protein (Human Xa [1]): 1.06 mole/mole; Fluorophore/Protein (bovine Xa): 1.02 mole/mole
CN(C)c1ccc2cc(S(=O)(=O)N[C@H](Cc3ccccc3)C(=O)N3CCC[C@H]3C(=O)N[C@@H](CCCNC(=N)N)C(=O)CCl)ccc2c1.Cl [2,6-dansyl-FPRck.HCl, 6-Dimethylaminonapthalene-2-sulfonyl-D-phenylalanyl-L-prolyl-L-arginine chloromethyl ketone hydrochloride] | – | – | – | – | – | – | – | blocking of reaction of thrombin with S2238 (thrombin): rapidly blocked
NC(N)=NCCC[C@H](NC(=O)[C@@H]1CCCN1C(=O)[C@H](N)Cc1ccccc1)C(=O)CCl [FPRck] | – | – | – | – | – | – | – | decrease of specific activity of tissue factor (tissue factor; 1.0 mM, 24 hours): 10-20%
O=C(O)c1cc[c]([Hg][Cl])cc1 [p-chloromercuribenzoate] | – | – | – | – | – | – | – | decrease of specific activity of tissue factor (tissue factor; 100 µM, 2 hours): 10-20%
Biotinyl-D-phenylalanyl-L-prolyl-L-arginine Chloromethyl Ketone [Biotinyl-PPACK] | none of the proteins showed a positive blot | none of the proteins showed a positive blot | none of the proteins showed a positive blot | none of the proteins showed a positive blot | none of the proteins showed a positive blot | none of the proteins showed a positive blot | none of the proteins showed a positive blot | biotinylated protein on blot (plasmin (hPm)): none of the proteins showed a positive blot; biotinylated protein on blot (hPg): none of the proteins showed a positive blot; enhancement of the fluorescence of fluorescein-avidin (avidin): positive
Biotinyl-ε-aminocaproyl-L-tyrosylglycyl-L-arginine chloromethyl ketone [BC-YGR-CK] | Identical results | Identical results | Identical results | Identical results | Identical results | Identical results | Identical results | factor VIIa remaining after treatment and avidin matrix, gel analysis (factor VIIa): no factor VIIa remained; also recorded: no contamination with factor VIIa; biotinylated proteins on blot of activated plasma (activated human plasma): several biotinylated proteins
biotinyl-ε-aminocaproyl-D-phenylalanyl-L-prolyl-L-arginine chloromethyl ketone [BC-PPACK] | positive | No reaction | No reaction | positive | No reaction | positive | positive | relative activity (vs. S2222) (Human Xa [3]; 0.46 equivalents added): 0.62; relative activity (vs. S2222) (Human Xa [3]; 0.92 equivalents added): 0.13; relative activity (vs. S2222) (Human Xa [3]; 1.38 equivalents added): 0.01; relative activity (vs. S2222) (Human Xa [3]; 1.84 equivalents added): 0.00; relative activity (vs. S2222) (Human Xa [3]; 2.76 equivalents added): 0.00; biotinylated protein on blot (plasmin (hPm)): positive; biotinylated protein on blot (hPg): No reaction
